Measured values as given in patent publication US6827926B2, “Metallotetrapyrrolic photosensitizing agents for use in photodynamic therapy” (Miravant Pharmaceuticals, Inc., priority 2001, dated 2004).

Legend:
Assay type in all cases: in vivo
[1] = Cardiovascular safety in pig coronary artery models (ECG, HR, BP); details: doses exceeding 20 mg/Kg
Procedure: (§1) Photosensitizers were administered systemically (at doses typically 2-3.5 mg/kg body weight, in a soybean phospholipid formulation) as a slow bolus injection in the ear vein. Drug treatments were followed (1-4 hr later) by endovascular light treatment (50-250 J/cm^2 fluence and 100-300 mW/cm^2 irradiance) in uninjured coronary (50-250 J/cm^2 fluence and 100-300 mW/cm^2 irradiance) and iliac (50-350 J/cm^2 fluence and 100-450 mW/cm^2 irradiance) arteries. In another set of experiments, animals also received balloon injuries in the coronary arteries at the time of PDT treatment. Angioplasty injuries in 2 coronary arteries were performed. Vital signs and cardiovascular parameters such as ECG, HR, BP, were monitored together with arterio-angiograms for measurements of vessel patency.

[2] = test system: balloon-injured pig coronary arteries; experiment: Pig coronary artery balloon injury model, 14 days (inhibition of neointima / intimal hyperplasia); details: for average inhibition of intimal hyperplasia over the length of the injured artery: pig coronary arteries; for Intimal hyperplasia Inhibition (14 days) Av. over injury: pig coronary artery balloon injury, drug dose 3 mg/Kg, 532 nm light, 55 J, 125 J/cm2, 250 mW
Procedure: (§2) Those photosensitizers showing excellent efficacy in the rat carotid artery model were evaluated in more detail in the pig coronary artery model (Waksman, R., Rodriguez, J. C., Robinson, K. A., Cipolla, G. D., Crocker, I. R., Scott, N. A. King, S. B., Wilcox, J. N., Circulation, 96, 1944-1952, 1997). If vascular PDT is to be proposed as a therapy to prevent restenosis in humans due to angioplasty or stenting, then it must first be shown to be effective in a large animal model such as the swine. Porcine coronary arteries are very similar to human coronary arteries with regard to size, neointima formation, and thrombosis in response to injury.
The swine model has been utilized in the preclinical evaluation of interventions to reduce restenosis for several reasons. Chief among these reasons are the similarities in (i) size and anatomy of the swine arteries to human arteries, that permits instrumentation and evaluation of results via catheters; and (ii) histopathological characteristics of the proliferative response following artery injury similar to that seen in humans. Furthermore, large animals including the swine have proven to be more predictive of success in reducing restenosis in humans than have small animal models. An extensive literature search (e.g., Weiner, B. H., et al. Circulation. 72:1081-1086,1985; Schwartz, R. S., et al. Circulation. 82:2190-2200, 1990; Vascular Brachytherapy, Veenendaal, The Netherlands:Nucletron B.V. 1996 pp.1-382) supports the notion that restenosis after balloon injury in porcine coronaries is the best model when compared to restenosis in humans. Therapies investigated in other species still must be confirmed in the porcine model. Several articles reviewing the relevant animal models for the study of restenosis have concluded that although imperfect, as are all animal models, the porcine model is still the best from the standpoint of similarity to human disease, ease of use, and cost (e.g., Schwartz, R. S., Murphy, J. G., Edwards, W. D., Camrud, A. R., Vlietstra, R. E., and Holmes, D. R. Restenosis after balloon angioplasty: A practical proliferative model in the porcine coronary arteries. Circulation. 82:2190-2200, 1990; Karas, S. P., Gravanis, M. B., Santoian, E. C., Robinson, K. A., and King, S. B., 3d Coronary intimal proliferation after balloon injury and stenting in swine: an animal model of restenosis. J.Am.Coll. Cardiology 20:467-474, 1992).
as §1
For longer term efficacy experiments (14 days after the PDT experiments) animals were sacrificed and serial sections of all relevant arteries (coronaries only) were harvested in 10% formalin and processed for histological assessment. Representative arterial segments underwent parafin embedding and sectioning for Hemoxylin & Eosin and/or elastin staining. Slides were prepared for microscopy histological analysis of the (i) acute cellular responses and (ii) inhibition of neointima formation following treatment. Once prepared, the slides were analyzed via microscopy for histomorphometry and effects such as medial wall acellularity, arterial wall and surrounding tissue cell death and proliferation. […]

[3] = test system: uninjured coronary and iliac arteries; experiment: Pig artery acute PDT experiments in uninjured arteries (acellularity); details: 532 nm light, 55 J, 125 J/cm2, 250 mW
Procedure: as §2, §1
For acute experiments done in uninjured arteries, 3-5 days after the PDT experiments, animals were sacrificed and serial sections of all relevant arteries (iliacs, & coronaries) were harvested in 10% formalin and processed for histological assessment. Results of PDT at this timepoint give us an insight into the selective cellular effects of PDT on VSMC and myofibroblasts which are known to be maximally proliferating and migrating at this same time in response to a vessel wall injury—such as an angioplasty.
For longer term efficacy experiments (14 days after the PDT experiments) animals were sacrificed and serial sections of all relevant arteries (coronaries only) were harvested in 10% formalin and processed for histological assessment. Representative arterial segments underwent parafin embedding and sectioning for Hemoxylin & Eosin and/or elastin staining. Slides were prepared for microscopy histological analysis of the (i) acute cellular responses and (ii) inhibition of neointima formation following treatment. Once prepared, the slides were analyzed via microscopy for histomorphometry and effects such as medial wall acellularity, arterial wall and surrounding tissue cell death and proliferation. […] The magnitude of the inhibition was greater than any other photosensitizer drug currently used by other groups in PDT (clinically or pre-clinically), and was on the order of that only previously seen with radiation in this model. Inhibition data is averaged over the injury length within the artery.

## COC(=O)CCC1=C(C)c2cc3[n-]c(cc4nc(cc5[n-]c(cc1n2)c(CCC(=O)OC)c5C)C=C4C)cc3C.[Cl-].[Ga+3] [Example 4, Gallium Chloride Deuteroporphyrin Dimethyl Ester]
[1]
  cardiotoxicity in pig coronary artery models: no cardiotoxicity was observed
[2]
  average inhibition of intimal hyperplasia over the length of the injured artery: > 75%
  Intimal hyperplasia Inhibition (14 days) Av. over injury: >70%
[3]; drug dose 1 mg/Kg
  Acellularity (%) (3 days): 50%
[3]; drug dose 2 mg/Kg
  Acellularity (%) (3 days): 70%
[3]; drug dose 3 mg/Kg
  Acellularity (%) (3 days): 95%

## CCC1=C(C)C2=[N+]3C1=Cc1c(C)c(CC)c4[n]1[Ga-2]31([Cl])[n]3c(c(C)c(CCC(=O)NC)c3=CC3=[N+]1C(=C4)C(C)=C3CCC(=O)NC)=C2 [Example 121, Gallium Chloride Mesoporphyrin N-methyl Amide]
[1]
  cardiotoxicity in pig coronary artery models: no cardiotoxicity was observed
[2]; 3 mg/Kg, light fluence 125 J/cm^2
  average inhibition of intimal hyperplasia over the length of the injured artery: > 75%
[2]
  Intimal hyperplasia Inhibition (14 days) Av. over injury: >70%
[3]; drug dose 1 mg/Kg
  Acellularity (%) (3 days): 45%
[3]; drug dose 2 mg/Kg
  Acellularity (%) (3 days): 75%
[3]; drug dose 3 mg/Kg
  Acellularity (%) (3 days): 95%

## Gallium Chloride Mesoporphyrin Dimethyl Ester [Example 1]
[1]
  cardiotoxicity in pig coronary artery models: no cardiotoxicity was observed
[2]
  average inhibition of intimal hyperplasia over the length of the injured artery: > 80%
  Intimal hyperplasia Inhibition (14 days) Av. over injury: >80%
[3]; drug dose 1 mg/Kg
  Acellularity (%) (3 days): 50%
[3]; drug dose 2 mg/Kg
  Acellularity (%) (3 days): 70%
[3]; drug dose 3 mg/Kg
  Acellularity (%) (3 days): 100%
